These results are taken from patent publication US20250011878A1, “METHOD TO DETECT RNA BIOMARKERS” (ITALFARMACO SPA, priority 2021, published 2025).

The test system of one data set is human monocytes. The experiment in a line: RNAseq gene expression in purified human monocytes treated with ITF3756 and/or TNF-α. The format is cell-based. The source says:
PBMCs used for the experiments were obtained from Buffy Coats of healthy donors (all samples tested negative for transmissible diseases as required for blood transfusion) separated over a Ficoll-Hypaque gradient (Biochrom). Monocytes were purified by negative selection from 100×10^6 PBMC using Pan Monocytes Isolation Kit (Milteny) following manufacturer's instructions. By Pan Monocyte Isolation kit untouched monocytes are isolated from human PBMCs and the simultaneous enrichment of classical (CD14^++CD16^−), non classical (CD14^+CD16^++) and intermediate (CD14^++CD16^+) monocytes is achieved. Non-monocytes, such as T cells, NK cells, B cells, dendritic cells, and basophils are indirectly magnetically labeled using a cocktail of biotin-conjugated antibodies and anti-Biotin MicroBeads. Briefly, 400 μL of Buffer (PBS 1×, 0.5% BSA and 2 mM EDTA), 100 μL of FcR Blocking Reagent and 100 μL of Biotin-Antibody Cocktail were added to PBMC, previously washed with PBS by centrifugation 300×g for 5 minutes, mixed and incubate for 5 minutes in the refrigerator (2-8° C.). After incubation, 300 μL of Buffer and 200 μL of anti-biotin microbeads were added to the cells, mixed and incubate further for 10 minutes in the refrigerator. After incubation cells were processed by subsequent magnetic cell separation. Cell suspension was applied onto the column and the flow-through containing unlabeled cells, representing the enriched monocytes, was collected. Purified monocytes were washed with Buffer by centrifugation 300×g for 5 minutes and counted in PBS. Purified monocytes (1,0×10^6/ml) were pre-treated for 2 h with ITF3756 1 μM or DMSO (0.005%) in 12-well plates in 1 ml final volume of complete medium (RPMI (Biochrom), FCS 10% and penicillin/streptomycin 1× (Sigma)). The cells were then stimulated or not with TNF-α (100 ng/mL, Peprotech) for 4h. After incubation with ITF3756 and TNF-α, the cells were collected, washed with PBS by centrifugation 300×g for 5 minutes and stored at −80° C. Samples were thawed on the bench for 2 minutes and total RNA was extracted with Trizol reagent (Thermo Fisher Scientific), following manufacturer's instructions. Briefly, Trizol reagent (0.75 ml Trizol per 5-10×10^6 cells) was added to the samples and the samples were incubated at room temperature (RT) for 5 minutes. After incubation, chloroform (150 μL per 0.75 mL Trizol) was added to the samples and after 3 minutes of incubation at RT, samples were centrifuged for 12000×g for 14 minutes at 4° C. After centrifugation, the mixture separates into 3 phases and RNA remains in the aqueous phase. The aqueous phase was removed for each sample and placed in new tubes, and isopropanol (0,375 ml per 0.75 ml of Trizol) was added in each tube. Samples was incubated for 30 minutes in the refrigerator (2-8° C.). After incubation, samples were centrifugated for 12000×g for 10 minutes at 4° C., the supernatant was removed and 75% ethanol (0.75 ml per 0.75 ml of Trizol) was added to samples. Samples were centrifuged for 7500×g for 5 minutes at 4° C., and the supernatant discarded. RNA was air dried on the bench for 5-10 minutes. RNA Samples was then resuspended in water (10-50 μL). The scheme of the experimental procedures carried out to generate the RNA sequence data is represented in FIG. 1. To determine the quantity and the integrity/purity of RNA samples, check controls were first performed by the Agilent Technologies 2100 Bioanalyzer using RNA 6000 LabChip® kit (Agilent #5067-1511). The Bioanalyzer is a bio-analytical device based on a combination of microfluidic chips, voltage-induced size separation in gel filled channels and laser-induced fluorescence (LIF) detection on a miniaturized scale. The RNA Integrity Number (RIN) software algorithm allows the classification of total RNA, based on a numbering system from 1 to 10, (with 1 being the most degraded and 10 being the most intact). […] Purified samples were processed using TruSeq RNA-Seq v2 Library Preparation Kit. […]

For data set [1] the following is noted: clinical data; cited from earlier work.
Where [2] appears, read: single treatment (ITF3756 1 μM or TNF-α 100 ng/mL), RNAseq, vs control.
Where [3] appears, read: single treatment vs vehicle-treated control (don), monocytes 4 h, padj<0.05.

TNF-α [reference compound]: in the data set on human monocytes (setting [2]), the ADA gene expression entry is “upregulation”, the IRF6 gene expression result is “no effect” and the LTBP4 gene expression entry is “downregulated by two fold”. The MMP9 gene expression entry in the data set with human monocytes (single treatment (ITF3756 1 μM or TNF-α 100 ng/mL), RNAseq, vs untreated control) is reported as “No modulation”. Moreover, the PD-L1 gene expression entry in the data set with human monocytes (single treatment (TNF-α 100 ng/mL 4 h), vs control) is listed as “strongly upregulated”. Also, in the data set on human monocytes (setting [3]), the “Genes Down regulated (number of genes modulated)” value amounted to 1688 and the “Genes Up regulated (number of genes modulated)” value is reported as 1563.

Regarding `O=C(NO)c1ccc(CN(c2cnccn2)c2cnccn2)cc1` [KA2507], the tolerability in patients entry in data set [1] is recorded as “very well tolerated”.

With `O=C(CCCCCCNC(=O)c1cnc(N(c2ccccc2)c2ccccc2)nc1)NO` [Ricolinostat], the tolerability in patients entry in data set [1] is recorded as “very well tolerated”.
